Assay results published in patent US20240245639A1, “Dermal Application of Retinoic Acid Receptor Agonists for Amelioration of Hypertrophic Scar” (Northwestern University, priority 2023, published 2024).

What was measured:
[1] = system: cellular retinoic acid binding protein (CRABP); conditions: cited from earlier work
[2] = system: primary rabbit dermal fibroblasts; test: Ch55 treatment of rabbit dermal fibroblasts (morphology, ACTA2 qRT-PCR); type: cell-based; conditions: 1,000 nM, 24 hours
Description: Cell culture Primary human neonatal foreskin fibroblasts were obtained from the Skin Biology and Diseases Resource-based Center at Northwestern University. Primary rabbit dermal fibroblasts were isolated from female New Zealand White rabbits via harvesting full-thickness skin biopsies from rabbit ears, digesting overnight in a solution of 5 mg/mL dispase, and subsequently mechanically separating dermis from epidermis. After discarding epidermal tissue, dermal tissue was minced with a razor blade, and fibroblasts were liberated through collagenase-mediated digestion for growth in culture. […] Human fibroblasts and rabbit fibroblasts were cultured on tissue culture plastic (or, for immunofluorescence experiments, on glass coverslips) in DMEM+10% FBS and were serum starved in DMEM+0.1% FBS for 24 hours prior to drug treatments. When indicated, recombinant human TGF-β 1 was included in culture medium at a concentration of 10 ng/mL. Cultures were maintained in a humidified cell culture incubator at 37° C., 5% CO2, and ambient O2. For treatment with drugs and associated vehicle controls, the fraction of DMSO in the media was always maintained at <0.1% (v/v) in order to avoid confounding effects. […]

[3] = system: primary human foreskin fibroblasts; test: Antagonism of fibroblast activation in presence or absence of TGF-β1 (qRT-PCR, Western blot, immunofluorescence); type: cell-based
[4] = system: primary human foreskin fibroblasts; test: RNA-seq expression profiling of Ch55 effects; type: cell-based; conditions: 1,000 nM Ch55, 24 hours
Text: We then used goseq (Young et al., 2010) to query the KEGG database with the […] signature and the TGF-β-antagonizing signature. Extraction of KEGG annotations and associated pathways enriched in the […] signature (FIG. 3D) tended to refer to either general categories (e.g. “proteasome,” “cell cycle,” “phagosome”) or categories relevant to other specific cell types (e.g. “Epithelial cell signaling in H. pylori infection,” “Collecting duct acid secretion,” “Axon guidance”). […] We next computed normalized gene expression values for the DEGs extracted from the TGF-β-antagonizing signature and overlaid Ch55-induced relative expression effects on potentially fibrosis-relevant pathways of interest using Pathview Web (Luo et al., 2017).
Purified RNA harvested from primary cultured human foreskin fibroblasts pooled from three donors underwent TruSeq stranded mRNA-seq library preparation at the Northwestern University NUSeq core facility, followed by paired-end sequencing on an Illumina HiSeq 4000. Raw FASTQ files were imported into Galaxy (Jalili et al., 2020). Reads were trimmed using Trimmomatic (Bolger et al., 2014) utilizing default parameters, prior to aligning to the human genome (hg38 construction) using HISAT2 (Kim et al., 2019). Reads were assigned to genomic features using featureCounts (Liao et al., 2014), and differential expression among groups was determined, and principal component analysis constructed, using DESeq2 (Love et al., 2014) with multiple comparison adjustment performed by the Benjamini-Hochberg correction (Benjamini and Hochberg, 1995). Differentially-expressed genes were defined as false discovery rate-adjusted (FDR) P<0.05. Pathway analysis on KEGG databases (Kanehisa and Goto, 2000) were performed using goseq (Young et al., 2010) and Pathview Web (Luo et al., 2017). Z-scores were calculated from normalized count values and used to construct heatmaps. FPKM values were estimated using Stringtie (Pertea et al., 2015). Raw RNA-sequence data are available through the National Center for Biotechnology Information Sequence Read Archive accession number PRJNA921850, the contents of which is incorporated by reference in its entirety.

RAR-β = molecular target: T1, RAR-β (Homo sapiens, UniProt P10826); conditions: cited from earlier work
T1 sequence (P10826 1-455): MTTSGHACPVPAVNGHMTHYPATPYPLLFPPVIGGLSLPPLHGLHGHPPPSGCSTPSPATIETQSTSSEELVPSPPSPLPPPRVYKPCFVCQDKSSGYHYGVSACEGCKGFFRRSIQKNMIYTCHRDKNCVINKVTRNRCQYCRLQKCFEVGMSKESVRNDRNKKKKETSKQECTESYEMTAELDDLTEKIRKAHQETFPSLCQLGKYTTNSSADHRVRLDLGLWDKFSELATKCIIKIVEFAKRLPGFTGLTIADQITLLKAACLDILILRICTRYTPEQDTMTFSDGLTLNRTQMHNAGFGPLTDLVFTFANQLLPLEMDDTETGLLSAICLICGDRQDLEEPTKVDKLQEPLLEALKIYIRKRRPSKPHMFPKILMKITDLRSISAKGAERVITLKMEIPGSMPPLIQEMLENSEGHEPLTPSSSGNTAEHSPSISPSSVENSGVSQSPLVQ

[5] = system: primary human keloid fibroblasts; test: Collagen I deposition in keloid fibroblasts (Western blot, immunofluorescence); type: cell-based; conditions: keloid fibroblasts, 1,000 nM Ch55, presence and absence of TGF-β1, 48 hours
Description: (§1) Since overproduction of collagen is characteristic of fibroblasts in tissue fibrosis, including hypertrophic scar and keloid, we wished to determine whether Ch55 also affects deposition of collagen I by these fibroblasts.
(§2) Cells cultured on glass coverslips were fixed in 4% paraformaldehyde for 30 minutes at room temperature. Cells were blocked in 10% normal goat serum and incubated overnight at 4° C. in solutions of the following primary antibodies: Rabbit monoclonal α-human α-SMA (1:500 dilution, catalog #192455, Cell Signaling Technology, Danvers M A) or mouse α-human COL1A1 (1:1000 dilution, catalog #M-38c, DSHB, Iowa City, IA). The following day, cells were incubated in 1:200 diluted solutions of goat-α-rabbit IgG or donkey-α-mouse IgG Alexafluor 488-conjugated secondary antibodies (A11034 or A21202, Invitrogen) containing Alexafluor 568-conjugated phalloidin (A12380, Invitrogen) for 2 hours in the dark at room temperature, before a 20 minute counterstain in 500 ng/mL DAPI. […]
(§3) Harvested scar tissues were incubated in 0.5M ammonium thiocyanate for 20 minutes, followed by mechanical separation of dermis and epidermis using a dissecting microscope. […] Protein concentrations of cell culture and tissue samples were determined using a DC protein assay (BioRad). […]

[6] = system: primary human HTS fibroblasts; test: Collagen I deposition in hypertrophic scar fibroblasts (Western blot, immunofluorescence); type: cell-based; conditions: HTS fibroblasts, 1,000 nM Ch55, presence and absence of TGF-β1, 48 hours
Description: as §1, §2, §3

[7] = 1,000 nM Ch55, ± 10 ng/mL TGF-β1, 24 hour
[8] = 1,000 nM Ch55, ± TGF-β1, 48 hours

Compound: CC(C)(C)c1cc(C(=O)/C=C/c2ccc(C(=O)O)cc2)cc(C(C)(C)C)c1 [Ch55]
- affinity for CRABP [1]: low affinity
- effects on morphology and ACTA2 expression [2]: comparable effects
- spread area per cell (brightfield microscopy) ([3]; 1,000 nM Ch55, 48 hours): decreased
- deposition of collagen I (immunofluorescence) ([3]; 1,000 nM Ch55, presence and absence of TGF-β1, 48 hours): greatly diminished deposition
- basal and TGF-β1-induced expression of ACTA2 (qRT-PCR) [3, 7]: significantly downregulated
- basal and TGF-β1-induced expression of CCN2 (qRT-PCR) [3, 7]: significantly downregulated
- basal and TGF-β1-induced expression of SERPINE1 (qRT-PCR) [3, 7]: significantly downregulated
- collagen deposition as assessed by expression of type I collagen (Western blot) [3, 8]: dramatically antagonized
- fibroblast activation as assessed by expression of α-SMA (Western blot) [3, 8]: dramatically antagonized
- genes known to be targets or regulators of retinoic acid signaling (RNA-seq) [4]: broad upregulation
- myofibroblast marker genes (RNA-seq) [4]: significantly downregulated
- LRRC15+/Lrrc15+ signature-enriched genes significantly downregulated (number of genes) ([4]; RNA-seq): 67/117
- LRRC15+/Lrrc15+ signature-enriched genes significantly downregulated (share of genes) ([4]; RNA-seq): ~57%
- affinity for RAR-β (RAR-β): high affinity
- collagen I deposition (Western blot, immunofluorescence) [5]: dramatic reduction
- collagen I deposition (Western blot, immunofluorescence) [6]: dramatic reduction
